Source: ChEMBL document CHEMBL1131044, “Discovery and preclinical pharmacology of a novel, potent, nonsteroidal estrogen receptor agonist/antagonist, CP-336156, a diaryltetrahydronaphthalene” (J Med Chem, 1998)

Legend:
[1] = Oral bioavailability in rat; assay type: ADME, organism-based; conditions: in vivo
[2] = species on record: Rattus norvegicus
Description: In vivo prevention of bone loss in ovariectomised rats on oral administration

[3] = biological target: Estrogen receptor (Rattus norvegicus, UniProt P06211+Q62986)
[4] = species on record: Rattus norvegicus; remark: listed apart in the source
Description: In vivo prevention of reduced serum cholesterol in ovariectomised rats on oral administration

[5] = Oral bioavailability in cynomolgus monkey.; assay type: ADME, organism-based, Macaca fascicularis; conditions: in vivo
[6] = in vivo; conditions: rat, po

Row | Structure (SMILES) | bioavailability [1] [%] | IC50 [3] [nM] | ED50 [2] [µg/day/kg] | ED50 [4] [µg/day/kg] | other results
1 | Oc1ccc2c(c1)CC[C@@H](c1ccccc1)[C@H]2c1ccc(OCCN2CCCC2)cc1 | 29 | 270 | >500 | >500 | –
2 | Oc1ccc2c(c1)CC[C@H](c1ccccc1)[C@H]2c1ccc(OCCN2CCCC2)cc1 | 16 | 9.75 | – | – | –
3 | COc1ccc2c(c1)CCC(c1ccccc1)C2c1ccc(OCCN2CCCC2)cc1 (centres undefined) | – | 132 | – | – | –
4 | Oc1ccc2c(c1)OC(c1ccc(OCCN3CCCC3)cc1)C(c1ccccc1)=C2 (centres undefined) | 27 | 11.1 | 175 | 175 | –
5 | Oc1ccc2c(c1)CC[C@H](c1ccccc1)[C@@H]2c1ccc(OCCN2CCCC2)cc1 (stereo in doubt; 9) [LASOFOXIFENE] | 60 | 11.1 | – | – | –
6 | COc1ccc2c(c1)CCC(c1ccccc1)=C2c1ccc(OCCN2CCCC2)cc1 [NAFOXIDINE] | – | 40.9 | – | – | –
7 | O=C(c1ccc(OCCN2CCCCC2)cc1)c1c(-c2ccc(O)cc2)sc2cc(O)ccc12 [RALOXIFENE] | – | – | 500 | 500 | bioavailability [6]: 10%; bioavailability ([5]; read-out: Bioavailabiility): 5%

Continued, in another order:

Row | bioavailability [1] [%] | IC50 [3] [nM] | Structure (SMILES) | ED50 [2] [µg/day/kg] | ED50 [4] [µg/day/kg] | other results
8 | – | 47.1 | Oc1ccc2c(c1)CCC(c1ccccc1)=C2c1ccc(OCCN2CCCC2)cc1 | – | – | –
9 | – | 11.3 | Oc1ccc2c(c1)CC[C@H](c1ccccc1)[C@@H]2c1ccc(OCCN2CCCC2)cc1 (stereo in doubt; 14) [LASOFOXIFENE] | <1 | 10 | F [1]: 62%; bioavailability [5]: 45%
